These results are taken from US20230265116A1, “DEGRADATION OF (EGFR) BY CONJUGATION OF EGFR INHIBITORS WITH E3 LIGASE LIGAND AND METHODS OF USE” (BEIGENE, LTD., priority 2020, published 2023).

By DC50 is commonly meant the concentration at which degradation of the target reaches its halfway point. The Dmax is the greatest extent of degradation seen.

Read-outs that look alike come from different tables or passages of the source.

Assay [1] concerns the target T1, EGFR L858R/T790M/C797S (BaF3-LTC cells) (Homo sapiens, UniProt P00533, C797S/L858R/T790M).
T1 construct: expressed in transfected cells; host or cells: BaF3
The experiment in a line: EGFR degradation HTRF assay, BaF3-LTC cells. Type of assay: cell-based. An outline of the steps: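 EGFR remaining after a 16 h, 37 °C exposure (8 doses, 5-fold steps from 10 uM final, 0.2% DMSO) was quantified by HTRF antibodies in cell lysate. Percent inhibition relative to DMSO control was fitted by four-parameter logistic to give DC50; Dmax denotes maximal degradation.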

Assay [2] deals with EGFR Del19/T790M/C797S (H1975-clone #28). Nature of the assay: EGFR degradation HTRF assay, H1975-clone #28 DTC cells. Type of assay: cell-based. An outline of the steps:
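The test uses H1975 clonal lines carrying lentiviral mutant EGFR with endogenous copies removed, treated 16h at 37° C., 5% CO2. EGFR left in the lysate is quantified by HTRF, and DC50 is derived from an 8-dose curve starting at 10 uM final.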

Where [3] appears, read: BaF3-LTC cells; EGFR degradation, IC50 (DC50) from curve fit; read-out: DC50(nM) BaF3-LTC.
Setting [4] is: BaF3-LTC cells; maximum percentage of inhibition (degradation); read-out: Dmax (%) BaF3-LTC.
Setting [5] is: H1975 # 28 DTC cells; EGFR degradation, IC50 (DC50) from curve fit; read-out: DC50(nM) H1975 # 28 DTC.
[6] abbreviates: H1975 # 28 DTC cells; maximum percentage of inhibition (degradation).

T1 sequence (P00533 25-1210 T790M/C797S/L858R): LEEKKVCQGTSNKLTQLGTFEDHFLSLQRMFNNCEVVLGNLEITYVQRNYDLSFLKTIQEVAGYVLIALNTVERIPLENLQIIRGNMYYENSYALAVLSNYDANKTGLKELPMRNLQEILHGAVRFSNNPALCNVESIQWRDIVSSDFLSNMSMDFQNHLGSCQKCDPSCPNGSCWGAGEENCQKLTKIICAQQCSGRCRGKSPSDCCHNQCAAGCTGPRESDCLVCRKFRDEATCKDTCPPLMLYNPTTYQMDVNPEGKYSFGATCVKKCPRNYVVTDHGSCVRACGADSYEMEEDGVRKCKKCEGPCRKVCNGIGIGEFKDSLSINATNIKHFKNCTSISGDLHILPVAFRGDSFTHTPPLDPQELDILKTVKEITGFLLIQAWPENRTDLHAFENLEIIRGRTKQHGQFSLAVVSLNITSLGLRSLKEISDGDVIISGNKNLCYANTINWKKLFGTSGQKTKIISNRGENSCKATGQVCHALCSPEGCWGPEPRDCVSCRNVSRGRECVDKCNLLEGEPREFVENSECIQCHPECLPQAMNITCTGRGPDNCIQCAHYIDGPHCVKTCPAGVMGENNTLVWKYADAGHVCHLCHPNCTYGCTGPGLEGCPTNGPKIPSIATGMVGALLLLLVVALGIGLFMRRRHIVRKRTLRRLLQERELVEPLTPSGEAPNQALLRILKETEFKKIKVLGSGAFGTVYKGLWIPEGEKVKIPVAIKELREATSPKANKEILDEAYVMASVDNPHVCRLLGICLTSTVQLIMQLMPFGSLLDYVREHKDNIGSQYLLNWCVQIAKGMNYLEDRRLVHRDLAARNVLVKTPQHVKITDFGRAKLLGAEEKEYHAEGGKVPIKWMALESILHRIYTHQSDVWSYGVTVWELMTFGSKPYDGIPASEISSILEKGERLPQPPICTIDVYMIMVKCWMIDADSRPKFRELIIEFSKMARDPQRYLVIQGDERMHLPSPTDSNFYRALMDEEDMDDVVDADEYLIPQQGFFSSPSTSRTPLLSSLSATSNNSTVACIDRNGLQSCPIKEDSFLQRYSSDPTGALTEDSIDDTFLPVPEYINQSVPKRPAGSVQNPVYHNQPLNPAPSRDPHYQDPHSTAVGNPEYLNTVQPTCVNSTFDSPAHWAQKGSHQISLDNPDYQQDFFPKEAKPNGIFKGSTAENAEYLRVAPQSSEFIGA

`CCc1cc(Nc2ncc(Br)c(Nc3ccc4nc(C)ccc4c3P(C)(C)=O)n2)c(OC)cc1N1CCC(N2CCN(CCc3cc(F)c(C4CCC(=O)NC4=O)c(F)c3)[C@@H](C)C2)CC1` (stereo partly drawn) [Example 693, 3-(4-(2-((S)-4-(1-(4-((5-bromo-4-((5-(dimethylphosphoryl)-2-methylquinolin-6-yl)amino)pyrimidin-2-yl)amino)-2-ethyl-5-methoxyphenyl)piperidin-4-yl)-2-methylpiperazin-1-yl)ethyl)-2,6-difluorophenyl)piperidine-2,6-dione]: the DC50 in assay [1] (setting [3]) stood at 13.8 nM; in assay [2] (setting [5]), 0.812 nM. The greatest degradation seen (Dmax) in assay [1] (setting [4]) worked out at 84.5%. In addition, the “Dmax (%) H1975 # 28 DTC” value in assay [2] (setting [6]) stood at 66.27%.

`CCOc1cc(N2CCC(N3CCN(CCc4ccc(F)c5c4n(CC)c(=O)n5C4CCC(=O)NC4=O)CC3)CC2)c(CC)cc1Nc1ncc(Br)c(Nc2ccc3c(=O)n(CC)ncc3c2P(C)(C)=O)n1` (stereo not drawn) [Example 594, 3-(4-(2-(4-(1-(4-((5-bromo-4-((5-(dimethylphosphoryl)-2-ethyl-1-oxo-1,2-dihydrophthalazin-6-yl)amino)pyrimidin-2-yl)amino)-5-ethoxy-2-ethylphenyl)piperidin-4-yl)piperazin-1-yl)ethyl)-3-ethyl-7-fluoro-2-oxo-2,3-dihydro-1H-benzo[d]imidazol-1-yl)piperidine-2,6-dione]: the results for the DC50 in assay [1] (setting [3]) and in assay [2] (setting [5]) were 17 nM and 0.818 nM, respectively. The Dmax in assay [1] (setting [4]) was 85.5%. Besides, in assay [2] (setting [6]), the “Dmax (%) H1975 # 28 DTC” value turned out to be 85.75%.

On to `CCOc1cc(N2CCC(N3CCN(CC4CN(c5cccc6c5oc(=O)n6C5CCC(=O)NC5=O)C4)CC3)CC2)c(CC)cc1Nc1ncc(Br)c(Nc2ccc3c(=O)n(CC)ncc3c2P(C)(C)=O)n1` (stereo not drawn) [Example 645, 3-(7-(3-((4-(1-(4-((5-bromo-4-((5-(dimethylphosphoryl)-2-ethyl-1-oxo-1,2-dihydrophthalazin-6-yl)amino)pyrimidin-2-yl)amino)-5-ethoxy-2-ethylphenyl)piperidin-4-yl)piperazin-1-yl)methyl)azetidin-1-yl)-2-oxobenzo[d]oxazol-3(2H)-yl)piperidine-2,6-dione], for which the results for the DC50 in assay [1] (setting [3]) and in assay [2] (setting [5]) were 22.7 nM and 6.2 nM, respectively. Also, the Dmax in assay [1] (setting [4]) is 95.8%. Further, in assay [2] (setting [6]), the “Dmax (%) H1975 # 28 DTC” value is 84.26%.

`CCOc1cc(N2CCC(N3CCN(CCc4ccc5c(c4)oc(=O)n5C4CCC(=O)NC4=O)CC3)CC2)c(CC)cc1Nc1ncc(Br)c(Nc2ccc3nc(C)c(F)cc3c2P(C)(C)=O)n1` (stereo not drawn) [Example 651, 3-(6-(2-(4-(1-(4-((5-bromo-4-((5-(dimethylphosphoryl)-3-fluoro-2-methylquinolin-6-yl)amino)pyrimidin-2-yl)amino)-5-ethoxy-2-ethylphenyl)piperidin-4-yl)piperazin-1-yl)ethyl)-2-oxobenzo[d]oxazol-3(2H)-yl)piperidine-2,6-dione]: the DC50 in assay [1] (setting [3]) is 2.13 nM; in assay [2] (setting [5]), 1.17 nM. Further, in assay [1] (setting [4]), the Dmax was 87.7%. In addition, the “Dmax (%) H1975 # 28 DTC” value in assay [2] (setting [6]) came to 79.33%.

With `CCOc1cc(N2CCC(N3CCN(CCc4c(F)ccc5c4n(CC)c(=O)n5C4CCC(=O)NC4=O)CC3)CC2)c(CC)cc1Nc1ncc(Br)c(Nc2ccc3c(=O)n(CC)ncc3c2P(C)(C)=O)n1` (stereo not drawn) [Example 596, 3-(4-(2-(4-(1-(4-((5-bromo-4-((5-(dimethylphosphoryl)-2-ethyl-1-oxo-1,2-dihydrophthalazin-6-yl)amino)pyrimidin-2-yl)amino)-5-ethoxy-2-ethylphenyl)piperidin-4-yl)piperazin-1-yl)ethyl)-3-ethyl-5-fluoro-2-oxo-2,3-dihydro-1H-benzo[d]imidazol-1-yl)piperidine-2,6-dione], the DC50 in assay [1] (setting [3]) amounted to 6.56 nM; in assay [2] (setting [5]), 0.937 nM. The “Dmax (%) BaF3-LTC” value in assay [1] (BaF3-LTC cells; maximum percentage of inhibition (degradation)) is recorded as 91.42%. In addition, the “Dmax (%) H1975 # 28 DTC” value in assay [2] (setting [6]) was 84.17%.

On to `CCc1cc(Nc2ncc(Br)c(Nc3ccc4nc(C)ccc4c3P(C)(C)=O)n2)c(OC)cc1N1CCC(N2CCN(C(=O)[C@@H]3CN(c4cc(F)c([C@H]5CCC(=O)NC5=O)c(F)c4)CC3(C)C)CC2)CC1` [Example 662, (R)-3-(4-((S)-4-(4-(1-(4-((5-bromo-4-((5-(dimethylphosphoryl)-2-methylquinolin-6-yl)amino)pyrimidin-2-yl)amino)-2-ethyl-5-methoxyphenyl)piperidin-4-yl)piperazine-1-carbonyl)-3,3-dimethylpyrrolidin-1-yl)-2,6-difluorophenyl)piperidine-2,6-dione], for which the DC50 turned out to be 5.4 nM in assay [1] (setting [3]) and 2.23 nM in assay [2] (setting [5]). For the same compound, in assay [1] (setting [4]), the Dmax worked out at 97%. Moreover, the “Dmax (%) H1975 # 28 DTC” value in assay [2] (setting [6]) was 89.14%.

On to `CCc1ccc2c(P(C)(C)=O)c(Nc3nc(Nc4cc(CC)c(N5CCC(N6CCN(C(=O)Cc7ccc8c(c7)oc(=O)n8C7CCC(=O)NC7=O)CC6)CC5)cc4OC)ncc3Br)ccc2n1` (stereo not drawn) [Example 669, 3-(6-(2-(4-(1-(4-((5-bromo-4-((5-(dimethylphosphoryl)-2-ethylquinolin-6-yl)amino)pyrimidin-2-yl)amino)-2-ethyl-5-methoxyphenyl)piperidin-4-yl)piperazin-1-yl)-2-oxoethyl)-2-oxobenzo[d]oxazol-3(2H)-yl)piperidine-2,6-dione], for which the DC50 in assay [1] (read-out: DC50(nM) BaF3-LTC; BaF3-LTC cells; EGFR degradation, IC50 (DC50) from curve fit) amounted to 4.06 nM; in assay [2] (read-out: DC50(nM) H1975 # 28 DTC; H1975 # 28 DTC cells; EGFR degradation, IC50 (DC50) from curve fit), 0.59 nM. In addition, the Dmax in assay [1] (read-out: Dmax (%) BaF3-LTC, BaF3-LTC cells; maximum percentage of inhibition (degradation)) is 91.1%. In assay [2] (setting [6]), the “Dmax (%) H1975 # 28 DTC” value is 73.26%.

Consider `CCOc1cc(N2CCC(N3CCN(CC4CN(c5cc(F)c([C@H]6CCC(=O)NC6=O)c(F)c5)C4)CC3)CC2)c(CC)cc1Nc1ncc(Br)c(Nc2ccc3nc(CC)ccc3c2P(C)(C)=O)n1` [Example 541, (R)-3-(4-(3-((4-(1-(4-((5-bromo-4-((5-(dimethylphosphoryl)-2-ethylquinolin-6-yl)amino)pyrimidin-2-yl)amino)-5-ethoxy-2-ethylphenyl)piperidin-4-yl)piperazin-1-yl)methyl)azetidin-1-yl)2,6-difluorophenyl)piperidine-2,6-dione], for which the DC50 in assay [1] (setting [3]) was found to be 17.8 nM; in assay [2] (setting [5]), 2.08 nM. The “Dmax (%) H1975 # 28 DTC” value in assay [2] (setting [6]) is recorded as 88.77%.

On to `CCOc1cc(N2CCC(N3CCN(CC4CN(c5cc(F)c([C@H]6CCC(=O)NC6=O)c(F)c5)C4)CC3)CC2)c(CC)cc1Nc1ncc(Br)c(Nc2ccc3nc(CC)ncc3c2P(C)(C)=O)n1` [Example 590, (R)-3-(4-(3-((4-(1-(4-((5-bromo-4-((5-(dimethylphosphoryl)-2-ethylquinazolin-6-yl)amino)pyrimidin-2-yl)amino)-5-ethoxy-2-ethylphenyl)piperidin-4-yl)piperazin-1-yl)methyl)azetidin-1-yl)-2,6-difluorophenyl)piperidine-2,6-dione], for which the DC50 worked out at 11.8 nM in assay [1] (setting [3]) and 0.697 nM in assay [2] (setting [5]). The Dmax in assay [1] (setting [4]) came to 91.7%. In addition, the “Dmax (%) H1975 # 28 DTC” value in assay [2] (setting [6]) came to 87.82%.

Regarding `CCc1ccc2c(P(C)(C)=O)c(Nc3nc(Nc4cc(CC)c(N5CCC(N6CCN(CC7CN(c8cccc9c8oc(=O)n9C8CCC(=O)NC8=O)C7)CC6)CC5)cc4OC)ncc3Br)ccc2n1` (stereo not drawn) [Example 448, 3-(7-(3-((4-(1-(4-((5-bromo-4-((5-(dimethylphosphoryl)-2-ethylquinolin-6-yl)amino)pyrimidin-2-yl)amino)-2-ethyl-5-methoxyphenyl)piperidin-4-yl)piperazin-1-yl)methyl)azetidin-1-yl)-2-oxobenzo[d]oxazol-3(2H)-yl)piperidine-2,6-dione], the DC50 came out at 6.92 nM in assay [1] (setting [3]) and 0.962 nM in assay [2] (setting [5]). For the same compound, the Dmax in assay [1] (setting [4]) was 89.5%. Besides, the “Dmax (%) H1975 # 28 DTC” value in assay [2] (setting [6]) is reported as 83.19%.
